Measurements taken from patent US11407689B2, “Black urea enhanced efficiency controllable release fertilizer compositions” (priority 2018, dated 2022).

Columns and labels:
[1] = system: rice; experiment: Greenhouse Rice Test (rice grown in 5-gallon buckets, chlorophyll by SPAD 501 meter and rough rice yield); assay type: in vivo; conditions: for Average of Chlorophyll Measurements: relative chlorophyll in leaves, SPAD 501 meter
Experimental: This test was conducted to compare the use of Chip Urea and Black Chip Urea to the use of ordinary granular urea for growing rice. Chip Urea, Black Chip Urea, and plain urea fertilizers were tested at Applied Chemical Technology to fertilize rice grown in 5-gallon buckets in a greenhouse. The rice was fertilized following practices used to grow rice commercially in Arkansas. These practices include fertilizing with starter fertilizers and then dry seeding the rice. Nitrogen is then applied at flooding and again when the plants enter the reproductive phase. The fertilizer is flooded into the soil when the rice plants reach the 4-leaf stage by applying the granular fertilizer to the surface and then the applying the floodwater.
The rice for the tests was grown in a climate controlled greenhouse. […] Each fertilizer was tested with five replicates placed randomly on the table. The codes for labeling the tests are given in Example 5. The bucket placement for the tests is shown in Example 6.
Top soil was purchased from Shoals Dirt near Florence, Ala. This soil was mixed and sieved using a 3 MG screen. Soil samples were taken and sent for testing to the University of Arkansas. Each five gallon bucket was filled with 39 pounds of soil and placed on the greenhouse table with no space between the buckets.
Based on the soil test results, each bucket received pre-fertilizer that included urea, triple super phosphate (TSP), potassium chloride, Epsom salts (magnesium sulfate heptahydrate), and zinc sulfate.
The TSP fertilizer was applied first. This was done by weighing out 3.58 g of TSP for each bucket and then mixing the TSP thoroughly into the top 3-4 inches of soil.
Next, the remaining starter fertilizer was applied to each bucket by making a solution of the urea, potassium chloride, zinc sulfate, and Epson salts according to the values presented in Table A of Example 5. This solution was made so that the amount of the solution needed to supply the correct amount of each nutrient to each bucket was found in 200 mL of the solution. The 200 mL of solution was then evenly poured over the surface of the soil in each bucket.
The pre-fertilizer was applied. The rice was then planted by placing 10-15 seeds on the surface of the soil and using a pencil to push the rice seed ¾ inch beneath the soil surface. The hole was filled with sand. After planting, the soil moisture was monitored. If the buckets needed to be watered, then all of the buckets are watered with the same amount of water by volume. For all of the watering throughout the tests, rain water was used. […]
The fertilizers used were products made at ACT in the pilot plant tests. […] The amounts of each fertilizer were based on the nitrogen measured in the fertilizer by LECO so that every bucket received the same amount of nitrogen. […]

[2] = system: arginine production in plants; conditions: cited from earlier work

| Structure (SMILES) | Average of Chlorophyll Measurements ([1]; July 19, 30 readings per bucket, five replicates) | Average of Chlorophyll Measurements ([1]; September 21 (Friday before harvest)) | % Increase in Yield ([1]; average yield per bucket versus plain urea) [%] | Average Rough Rice Yield per Bucket, Average Dry Weight at Harvest ([1]; panicles dried at 50° C. for two days, same weight of N per bucket) [g] | Effectiveness in stimulating arginine production relative to urea [2] [times] |
| --- | --- | --- | --- | --- | --- |
| NC(N)=O [Urea, urea] | 46.8 | 36.4 | 0.0 | 64.42 |  |
| N#CN [acid cyanamide ion] |  |  |  |  | 20 |
